According to patent US20260109707A1, “HETEROBIFUNCTIONAL COMPOUNDS AND METHODS OF TREATING DISEASE” (Halda Therapeutics OpCo. Inc., priority 2022, published 2026):
Like-named read-outs stand apart in the source and are kept apart here.

Legend:
[1] = system: T-Rex 293 cell line SC3 cells lacking increased expression of androgen receptor protein; experiment: Cellular growth inhibition assay, T-Rex 293 SC3 cells without doxycycline (CellTiter-Glo, 72 hours); assay type: cell-based; details: T-Rex 293 cell line SC3 cells not exposed to doxycycline (lacking increased androgen receptor expression)
Method in brief: (§1)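 Growth inhibition is measured in an inducible AR-expressing T-Rex 293 clone, SC3, cultured with or without 10 ng/mL doxycycline in hormone-depleted medium. Test compounds are applied for 72 hours. GI50 values derive from CellTiter-Glo 2.0 signal fitted by four-parameter regression.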

[2] = system: VCaP cells; experiment: Cellular growth inhibition assay for VCaP cells (CellTiter-Glo, 72 hours); assay type: cell-based, human
Method in brief: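 Luminescent viability signal after 72 h of compound exposure gave GI50 values by four-parameter nonlinear regression. Compounds were added in 0.5% DMSO to cells plated 24 h earlier at 5000/well in DMEM containing 10% FBS.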

[3] = system: T-Rex 293 cell line SC3 cells having increased expression of androgen receptor protein due to exposure to doxycycline; experiment: Cellular growth inhibition assay, T-Rex 293 SC3 cells with doxycycline (CellTiter-Glo, 72 hours); assay type: cell-based; details: T-Rex 293 SC3 cells with increased androgen receptor expression due to doxycycline (10 ng/mL)
Method in brief: as §1

Row | SMILES | GI50 ([1]; 72 h) [µM] | GI50 ([2]; Homo sapiens, VCaP, 72 h) [µM] | GI50 [3] [µM] | GI50 [2] [µM] | GI50 [1] [µM] | GI50 ([3]; 72 h) [µM]
1 | Cc1sc2c(c1C)C(c1ccc(C3CCC4(CC3)CCN(c3ccc(C(=O)N[C@H]5CC[C@H](Oc6ccc(C#N)c(Cl)c6)CC5)nn3)C4)cc1)=N[C@@H](C)c1nnc(C)n1-2 (stereo partly drawn) [I-494] | < 0.5 | < 0.5 | < 0.5 | – | – | –
2 | Cc1sc2c(c1C)C(c1ccc(N3CCC4(CCCN(c5ccc(C(=O)N[C@H]6CC[C@H](Oc7ccc(C#N)c(Cl)c7)CC6)nn5)C4)CC3)cc1)=NC(C(F)(F)F)c1nnc(C)n1-2 (stereo partly drawn) [I-721] | > 3 | – | < 0.5 | < 0.5 | – | –
3 | Cc1sc2c(c1C)C(c1ccc(N3CCC4(CCN(c5ccc(C(=O)N[C@H]6CC[C@H](Oc7ccc(C#N)c(Cl)c7)CC6)nn5)CC4)C3)cc1)=NC(C(F)(F)F)c1nnc(C)n1-2 (stereo partly drawn) [I-726] | > 3 | < 0.5 | < 0.5 | – | – | –
4 | Cc1sc2c(c1C)C(c1ccc(CC3CCC4(C3)CN(c3ccc(C(=O)N[C@H]5CC[C@H](Oc6ccc(C#N)c(Cl)c6)CC5)nn3)CCO4)cc1)=N[C@@H](C)c1nnc(C)n1-2 (stereo partly drawn) [I-580] | – | – | < 0.5 | < 0.5 | < 0.5 | –
5 | Cc1sc2c(c1C)C(c1ccc(CC3CCC4(C3)CN(c3ccc(C(=O)N[C@H]5CC[C@H](Oc6ccc(C#N)c(Cl)c6)CC5)nn3)CCO4)cc1)=N[C@@H](C)c1nnc(C)n1-2 (stereo partly drawn) [I-579] | – | – | < 0.5 | 1.5 to 3 | < 0.5 | –
6 | Cc1sc2c(c1C)C(c1ccc(N3CC4(CC(Cc5ccc(C(=O)N[C@H]6CC[C@H](Oc7ccc(C#N)c(Cl)c7)CC6)nn5)C4)C3)cc1)=N[C@@H](Cc1ncco1)c1nnc(C)n1-2 [I-469] | > 3 | < 0.5 | – | – | – | < 0.5
7 | Cc1sc2c(c1C)C(c1ccc(N3C[C@@]4(F)CN(c5ccc(C(=O)N[C@H]6CC[C@H](Oc7ccc(C#N)c(Cl)c7)CC6)nn5)C[C@@]4(F)C3)cc1)=N[C@@H](C)c1nnc(C)n1-2 [I-675] | < 0.5 | < 0.5 | – | – | – | < 0.5
8 | Cc1sc2c(c1C)C(c1cccc(N3CCC4(CC3)CCN(c3ccc(C(=O)N[C@H]5CC[C@H](Oc6ccc(C#N)c(Cl)c6)CC5)nn3)C4)c1)=N[C@@H](C)c1nnc(C)n1-2 [I-685] | 0.5 to 1.5 | < 0.5 | – | – | – | < 0.5
9 | Cc1sc2c(c1C)C(c1ccc(OC3CCC4(CCN(c5ccc(C(=O)N[C@H]6CC[C@H](Oc7ccc(C#N)c(Cl)c7)CC6)nn5)C4)C3)cc1)=N[C@@H](C)c1nnc(C)n1-2 (stereo partly drawn) [I-734] | – | – | < 0.5 | < 0.5 | < 0.5 | –
10 | Cc1sc2c(c1C)C(c1ccc(N3CCC(N4CCN(c5ncc(C(=O)N[C@H]6CC[C@H](Oc7ccc(C#N)c(Cl)c7)CC6)cn5)CC4)CC3)cc1)=NC(Cc1ncco1)c1nnc(C)n1-2 (stereo partly drawn) [I-792] | < 0.5 | < 0.5 | – | – | – | < 0.5
11 | Cc1sc2c(c1C)C(c1ccc(N3CCC4(CC3)CCN(c3ccc(C(=O)N[C@H]5CC[C@H](Oc6ccc(C#N)c(Cl)c6)CC5)nn3)C4)cn1)=NC1(CC1)c1nnc(C)n1-2 [I-502] | > 3 | > 3 | – | – | – | < 0.5
12 | Cc1sc2c(c1C)C(c1cccc(N3CC4(CCN(c5ccc(C(=O)N[C@H]6CC[C@H](Oc7ccc(C#N)c(Cl)c7)CC6)nn5)CC4)C3)c1)=N[C@@H](C)c1nnc(C)n1-2 [I-683] | > 3 | > 3 | – | – | – | > 3
13 | COC[C@@H]1N=C(c2ccc(N3CCC4(CCCN(c5ccc(C(=O)N[C@H]6CC[C@H](Oc7ccc(C#N)c(Cl)c7)CC6)nn5)C4)CC3)cc2)c2c(sc(C)c2C)-n2c(C)nnc21 [I-568] | < 0.5 | 1.5 to 3 | – | – | – | < 0.5
14 | Cc1sc2c(c1C)C(c1ccc(C3CCC4(CCN(c5ccc(C(=O)N[C@H]6CC[C@H](Oc7ccc(C#N)c(Cl)c7)CC6)nn5)CC4)C3)cn1)=NC1(CC1)c1nnc(C)n1-2 (stereo partly drawn) [I-691] | > 3 | < 0.5 | – | – | – | < 0.5
15 | Cc1sc2c(c1C)C(c1ccc(COC3CCC4(CCCN(c5ccc(C(=O)N[C@H]6CC[C@H](Oc7ccc(C#N)c(Cl)c7)CC6)nn5)C4)C3)cc1)=N[C@@H](C)c1nnc(C)n1-2 (stereo partly drawn) [I-514] | – | – | – | 1.5 to 3 | < 0.5 | < 0.5
16 | Cc1sc2c(c1C)C(c1ccc(OCC3CCC4(C3)CN(c3ccc(C(=O)N[C@H]5CC[C@H](Oc6ccc(C#N)c(Cl)c6)CC5)nn3)CCO4)cc1)=N[C@@H](C)c1nnc(C)n1-2 (stereo partly drawn) [I-668] | – | – | < 0.5 | < 0.5 | < 0.5 | –
17 | Cc1sc2c(c1C)C(c1ccc(N3CCC4(CCCN(c5ccc(C(=O)N[C@H]6CC[C@H](Oc7ccc(C#N)c(Cl)c7)CC6)nn5)C4)CC3)cc1)=NC(C(F)(F)F)c1nnc(C)n1-2 (stereo partly drawn) [I-722] | – | – | > 3 | > 3 | > 3 | –

Row | SMILES | GI50 ([1]; 72 h) [µM] | GI50 ([2]; Homo sapiens, VCaP, 72 h) [µM] | GI50 [3] [µM] | GI50 [2] [µM] | GI50 [1] [µM] | GI50 ([3]; 72 h) [µM]
18 | Cc1sc2c(c1C)C(c1ccc(OCC3CCC4(C3)CN(c3ccc(C(=O)N[C@H]5CC[C@H](Oc6ccc(C#N)c(Cl)c6)CC5)nn3)CCO4)cc1)=N[C@@H](C)c1nnc(C)n1-2 (stereo partly drawn) [I-638] | – | – | < 0.5 | 1.5 to 3 | < 0.5 | –
19 | Cc1sc2c(c1C)C(c1ccc(N3CCC4(CC3)CCN(c3ccc(C(=O)N[C@H]5CC[C@H](Oc6ccc(C#N)c(Cl)c6)CC5)nn3)C4)cc1)=N[C@H](C)c1nnc(C)n1-2 [I-591] | > 3 | < 0.5 | – | – | – | < 0.5
20 | Cc1sc2c(c1C)C(c1ccc(OCC3CC4(CCCN(c5ccc(C(=O)N[C@H]6CC[C@H](Oc7ccc(C#N)c(Cl)c7)CC6)nn5)C4)C3)cc1)=NCc1nnc(C)n1-2 (stereo partly drawn) [I-446] | > 3 | – | < 0.5 | < 0.5 | – | –
21 | Cc1sc2c(c1C)C(c1ccc(CCCC3CCCN(c4ccc(C(=O)N[C@H]5CC[C@H](Oc6ccc(C#N)c(Cl)c6)CC5)nn4)CC3)nc1)=N[C@@H](C)c1nnc(C)n1-2 (stereo partly drawn) [I-671] | < 0.5 | < 0.5 | – | – | – | < 0.5
22 | Cc1sc2c(c1C)C(c1ccc(N3CC(CC4CCCN(c5ccc(C(=O)N[C@H]6CC[C@H](Oc7ccc(C#N)c(Cl)c7)CC6)nn5)C4)C3)cc1)=N[C@@H](C)c1nnc(C)n1-2 (stereo partly drawn) [I-576] | < 0.5 | < 0.5 | – | – | – | < 0.5
23 | Cc1sc2c(c1C)C(c1ccc(N3CCC(Cc4ccc(C(=O)N[C@H]5CC[C@H](Oc6ccc(C#N)c(Cl)c6)CC5)nn4)CC3)cc1)=N[C@@H](C)c1nnc(C)n1-2 [I-606] | > 3 | > 3 | – | – | – | < 0.5
24 | Cc1sc2c(c1C)C(c1ccc(CC3CCC4(CCCN(c5ccc(C(=O)N[C@H]6CC[C@H](Oc7ccc(C#N)c(Cl)c7)CC6)nn5)C4)C3)cc1)=N[C@@H](C)c1nnc(C)n1-2 (stereo partly drawn) [I-585] | – | – | < 0.5 | > 3 | > 3 | –
25 | Cc1sc2c(c1C)C(c1ccccc1OC1CCC3(CC1)CCN(c1ccc(C(=O)N[C@H]4CC[C@H](Oc5ccc(C#N)c(Cl)c5)CC4)nn1)C3)=N[C@@H](C)c1nnc(C)n1-2 (stereo partly drawn) [I-752] | < 0.5 | < 0.5 | – | – | – | < 0.5
26 | Cc1sc2c(c1C)C(c1ccc(N3CCC(CN4CCN(c5ccc(C(=O)N[C@H]6CC[C@H](Oc7ccc(C#N)c(Cl)c7)CC6)nn5)CC4)CC3)cc1)=NC1(CC1)c1nnc(C)n1-2 [I-480] | 0.5 to 1.5 | < 0.5 | – | – | – | < 0.5
27 | Cc1sc2c(c1C)C(c1ccc(OC3CCC4(C3)CN(c3ccc(C(=O)N[C@H]5CC[C@H](Oc6ccc(C#N)c(Cl)c6)CC5)nn3)CCO4)cc1)=N[C@@H](C)c1nnc(C)n1-2 (stereo partly drawn) [I-541] | – | – | < 0.5 | > 3 | < 0.5 | –
28 | Cc1sc2c(c1C)C(c1ccc(N3CCOC4(CCN(c5ccc(C(=O)N[C@H]6CC[C@H](Oc7ccc(C#N)c(Cl)c7)CC6)nn5)C4)C3)cc1)=N[C@@H](C)c1nnc(C)n1-2 (single isomer, unassigned) [I-827] | < 0.5 | < 0.5 | – | – | – | < 0.5
29 | Cc1sc2c(c1C)C(c1ccc(C3CCC4(CCN(c5ccc(C(=O)N[C@H]6CC[C@H](Oc7ccc(C#N)c(Cl)c7)CC6)nn5)C4)C3)cc1)=N[C@@H](C)c1nnc(C)n1-2 (stereo partly drawn) [I-823, N-[4-(3-chloro-4-cyano-phenoxy)cyclohexyl]-6-[8-[4-[(9S)-4,5,9,13-tetramethyl-3-thia-1,8,11,12-tetrazatricyclo[8.3.0.02,6]trideca-2(6),4,7,10,12-pentaen-7-yl]phenyl]-2-azaspiro[4.4]nonan-2-yl]pyridazine-3-carboxamide] | – | – | < 0.5 | < 0.5 | < 0.5 | –
30 | Cc1sc2c(c1C)C(c1ccc(C3CCC4(CC3)CCN(c3ccc(C(=O)N[C@H]5CC[C@H](Oc6ccc(C#N)c(Cl)c6)CC5)nn3)CC4)nc1)=N[C@@H](C)c1nnc(C)n1-2 [I-744] | – | – | < 0.5 | < 0.5 | 0.5 to 1.5 | –
31 | COCC[C@@H]1N=C(c2ccc(C3CCC4(CCN(c5ccc(C(=O)N[C@H]6CC[C@H](Oc7ccc(C#N)c(Cl)c7)CC6)nn5)CC4)C3)cc2)c2c(sc(C)c2C)-n2c(C)nnc21 (stereo partly drawn) [I-617] | – | – | < 0.5 | < 0.5 | 0.5 to 1.5 | –
32 | COC[C@@H]1N=C(c2ccc(C3CCC4(CCCN(c5ccc(C(=O)N[C@H]6CC[C@H](Oc7ccc(C#N)c(Cl)c7)CC6)nn5)C4)CC3)cc2)c2c(sc(C)c2C)-n2c(C)nnc21 (stereo partly drawn) [I-655] | – | – | < 0.5 | 0.5 to 1.5 | < 0.5 | –
33 | Cc1sc2c(c1C)C(c1ccc(OC3CCC4(C3)CN(c3ccc(C(=O)N[C@H]5CC[C@H](Oc6ccc(C#N)c(Cl)c6)CC5)nn3)CCO4)cc1)=N[C@@H](C)c1nnc(C)n1-2 (stereo partly drawn) [I-539] | – | – | – | 0.5 to 1.5 | > 3 | < 0.5
34 | Cc1sc2c(c1C)C(c1ccccc1OC1CCN(c3ccc(C(=O)N[C@H]4CC[C@H](Oc5ccc(C#N)c(Cl)c5)CC4)nn3)CC1)=N[C@@H](C)c1nnc(C)n1-2 [I-649] | > 3 | < 0.5 | – | – | – | > 3
